Reference: PMC8041284, “Tunable Methacrylamides for Covalent Ligand Directed Release Chemistry” (Journal of the American Chemical Society, 2021)
Like-named read-outs stand apart in the source and are kept apart here. Where a SMILES comes first, the peptide text is derived from it. [ ]: non-standard residue; d: D form. Nle = CCCC[C@H](N)C(=O)O

Molecular target: BTK (Homo sapiens, UniProt Q06187)
Assay: biochemical
[1] = read-out: BTK inhibition (%), 0.75 uM BTK, […] probe 3l, 15 min preincubation

BTK, sequence (Q06187 402-655 limits assumed): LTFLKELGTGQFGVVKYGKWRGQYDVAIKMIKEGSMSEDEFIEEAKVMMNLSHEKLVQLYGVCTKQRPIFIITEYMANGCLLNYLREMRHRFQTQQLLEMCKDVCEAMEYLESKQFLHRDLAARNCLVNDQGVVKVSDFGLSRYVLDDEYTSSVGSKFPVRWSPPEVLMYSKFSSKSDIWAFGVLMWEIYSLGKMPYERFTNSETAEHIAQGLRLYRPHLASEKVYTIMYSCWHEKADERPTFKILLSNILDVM

SMILES	inhibition at 10 µM [1] [%]	inhibition at 10 µM (read-out: BTK inhibition (%)) [%]
CC(C)=CCC[C@](C)(O[C@@H]1O[C@H](CO)[C@@H](O)[C@H](O)[C@H]1O)[C@H]1CC[C@]2(C)[C@@H]1[C@H](O)C[C@@H]1[C@@]3(C)CC[C@H](O[C@@H]4O[C@H](CO)[C@@H](O)[C@H](O)[C@H]4O[C@@H]4O[C@H](CO)[C@@H](O)[C@H](O)[C@H]4O)C(C)(C)[C@@H]3CC[C@]12C [PCM-0215020]	21	
CCCC[C@@H](C=O)NC(=O)[C@H](CC(C)C)NC(=O)[C@H](CC(C)C)NC(C)=O [PCM-0215374] (Ac-Leu-Leu-[Nle]-aldehyde)	18.5	
COC(=O)C[C@](O)(CCC(C)(C)O)C(=O)O[C@@H]1C(OC)=C[C@]23CCCN2CCc2cc4c(cc2[C@H]13)OCO4 [PCM-0216362]		-7.7
C[C@]12CCC(=O)C[C@@H]1CC[C@@H]1[C@@H]2CC[C@]2(C)[C@@H](O)CC[C@@H]12 [PCM-0214865]		-21
CNC(=O)CN1CCC(Oc2cc3c(Nc4cccc(Cl)c4F)ncnc3cc2OC)CC1 [PCM-0095236]	23.4	
OC(Cn1cncn1)(Cn1cncn1)c1ccc(F)cc1F [PCM-0086230]	9.3	
OCc1c[nH]c2ccccc12 [PCM-0091140]	-14	
Nc1nc(-c2ccco2)c2cnn(Cc3ccccc3F)c2n1 [PCM-0215878]	5.4	
Clc1cccc(Cl)c1NC1=NCCN1 [PCM-0064514]	-19.5	
CN1C(C(=O)Nc2ccccn2)=C(O)c2ccccc2S1(=O)=O [PCM-0064770]	9	
O=C(O)c1ccccc1C(=O)Nc1ccc(-c2ccccc2)cc1 [PCM-0215383]	13.9	
CCOC(=O)n1ccn(C)c1=S [PCM-0086034]	-17.1	
CC[C@H](C)C(=O)O[C@H]1C[C@@H](C)C=C2C=C[C@H](C)[C@H](CC[C@@H]3C[C@@H](O)CC(=O)O3)[C@H]21 [PCM-0086045]	9.3	
Cc1c(-c2ccccc2)oc2c(C(=O)OCCN3CCCCC3)cccc2c1=O [PCM-0085770]	12.8	
NC[C@H](CC(=O)O)c1ccc(Cl)cc1 [PCM-0095558]	-12.8	
OCC(CO)N[C@H]1C[C@](O)(CO)[C@@H](O)[C@H](O)[C@H]1O [PCM-0214770]	-8.6	
C=CC(=O)N1CCC(Oc2cc3c(Nc4ccc(Cl)c(Cl)c4F)ncnc3cc2OC)CC1 [PCM-0215416]	119	
CN(C)Cc1ccc(S(=O)(=O)n2ccc(/C=C/C(=O)NO)c2)cc1 [PCM-0214759]	9.3	
Clc1ncnc2nc[nH]c12 [PCM-0215064]	9.3	
CC[C@H]1OC(=O)[C@H](C)[C@@H](O[C@H]2C[C@@](C)(OC)[C@@H](O)[C@H](C)O2)[C@H](C)[C@@H](O[C@@H]2O[C@H](C)C[C@H](N(C)C)[C@H]2O)[C@](C)(O)C[C@@H](C)/C(=N\OCOCCOC)[C@H](C)[C@@H](O)[C@]1(C)O [PCM-0214736]	3.9	
Clc1ccc(N/N=C(\c2ccccc2)c2ccccn2)nc1 [PCM-0215265]	6.2	
Cc1c(C(=O)Nc2ccc(N3CCC(N4CCOCC4)CC3)c(C#N)c2)cnn1-c1ccc(Cl)cc1 [PCM-0215293]	-11.7	
COc1ccc(-c2ccc3cc(C(=O)O)ccc3c2)cc1C12CC3CC(CC(C3)C1)C2 [PCM-0090276]	29	
CC[C@H](Nc1ncnc2nc[nH]c12)c1oc2ccccc2c(=O)c1-c1cccc(F)c1 [PCM-0216040]	8.5	
COc1c(C)c2c(c(O)c1C/C=C(\C)CCC(=O)O)C(=O)OC2 [PCM-0090203]	19.3	

SMILES	inhibition at 10 µM [1] [%]	inhibition at 10 µM (read-out: BTK inhibition (%)) [%]
CCOC(=O)c1ncn2c1CN(C)C(=O)c1cc(F)ccc1-2 [PCM-0065129]	3.1	
CC(C)=C[C@H]1C[C@](C)(O)[C@@H]2[C@H]3CC[C@@H]4[C@@]5(C)CC[C@H](O[C@@H]6OC[C@H](O)[C@H](O[C@@H]7O[C@H](CO[C@@H]8O[C@H](CO)[C@@H](O)[C@H](O)[C@H]8O)[C@@H](O)[C@H](O)[C@H]7O[C@@H]7OC[C@@H](O)[C@H](O)[C@H]7O)[C@H]6O[C@@H]6O[C@@H](C)[C@H](O)[C@@H](O)[C@H]6O)C(C)(C)[C@@H]5CC[C@@]4(C)[C@@]34CO[C@@]2(C4)O1 [PCM-0216469]	10	
CCOC(=O)CCNc1cc(N2CCc3ccccc3CC2)nc(-c2ccccn2)n1 [PCM-0095581]	-0.8	
CC1CCCCCCCCCCCCC(=O)C1 (centres unmarked) [PCM-0215929]	0.7	
c1ccc2c(c1)CCCC2C1=NCCN1 (centres unmarked) [PCM-0064782]	-11	
CCNC(=O)C#Cc1ccc2c(C(=Nc3ccc(CN(C)C)cc3)c3ccccc3)c(O)[nH]c2c1 [PCM-0215488]	88.3	
CCC(=O)NCC[C@@H]1CCc2ccc3c(c21)CCO3 [PCM-0090528]	-20.2	
CCn1c(=O)c(-c2ccn[nH]2)cc2c(C)nc(N)nc21 [PCM-0215577]	7.6	
CN[C@@H]1[C@@H](O)[C@@H](O[C@@H]2[C@@H](O)[C@H](O[C@H]3OC(CN)=CC[C@H]3N)[C@@H](N)C[C@H]2N)OC[C@]1(C)O [PCM-0215656]	28.9	
Cc1cn([C@H]2C=C[C@@H](CO)O2)c(=O)[nH]c1=O [PCM-0065071]	2.3	
CC(C(=O)O)c1ccc(C(=O)c2cccs2)cc1 (centres unmarked) [PCM-0086408]	-1.4	
O=C(C[S+]([O-])Cc1ccco1)NC/C=C\COc1cc(CN2CCCCC2)ccn1 (centres unmarked) [PCM-0095231]	-9	
C[C@@H]1CC[C@@]2(NC1)O[C@H]1C[C@H]3[C@@H]4CC=C5C[C@@H](O[C@@H]6O[C@H](CO)[C@@H](O[C@@H]7O[C@@H](C)[C@H](O)[C@@H](O)[C@H]7O)[C@H](O)[C@H]6O[C@@H]6O[C@@H](C)[C@H](O)[C@@H](O)[C@H]6O)CC[C@]5(C)[C@H]4CC[C@]3(C)[C@H]1[C@@H]2C [PCM-0216423]	17.8	
Nc1ccccc1NC(=O)c1cnccn1 [PCM-0215479]	-3.9	
CC(C)S(=O)(=O)c1ccc2nccc(Nc3ccc4scnc4c3)c2c1 [PCM-0213432]	26.2	
NC(=NCCCCCCN=C(N)/N=C(\N)Nc1ccc(Cl)cc1)/N=C(\N)Nc1ccc(Cl)cc1 [PCM-0085888]	3.1	
CNc1ccc([N+](=O)[O-])c(Nc2ccc3[nH]ncc3c2)n1 [PCM-0215769]	32.4	
CC(C)Nc1cc(-c2c[nH]c(C(=O)N[C@H](CO)c3cccc(Cl)c3)c2)c(Cl)cn1 [PCM-0215481]	78.6	
O=C(O)C1(Cc2cccc(Nc3nccs3)n2)CCC(Oc2cccc(Cl)c2F)CC1 (centres unmarked) [PCM-0095334]	102	
C/C(=C\CNc1ncnc2nc[nH]c12)CO [PCM-0215137]	-13.2	
COc1ccc(Cl)c(Nc2nc3ccccc3nc2NS(=O)(=O)c2cccc(NC(=O)C(C)(C)N)c2)c1 [PCM-0215473]	24.1	
O=C1Nc2ccc(CN3C(=O)CSC3=O)cc2/C1=C/c1cc(CN2CCOCC2)c[nH]1 [PCM-0215763]	-11	
COc1ccccc1S(=O)(=O)Nc1ccc2c(c1)CN(C)C(=O)N2 [PCM-0094933]	6.2	
C[C@@H](Nc1cc(F)cc(F)c1)c1cc(C(=O)N(C)C)cc2c(=O)cc(N3CCOCC3)oc12 [PCM-0215502]	-15.2	
Cc1ccc(C(=O)Nc2ccc(Oc3cc4cnn(C)c4cc3-c3cn[nH]c3)c(F)c2)c(=O)n1-c1ccc(F)cc1 [PCM-0215736]	105	

SMILES	inhibition at 10 µM [1] [%]	inhibition at 10 µM (read-out: BTK inhibition (%)) [%]
CCCSc1ccc2nc(NC(=O)OC)[nH]c2c1 [PCM-0085774]	-10.1	
O=C[C@H](O)[C@@H](O)[C@H](O)CO [PCM-0214661]	-12.5	
CC1=C[C@@]2(O)O[C@@]3(CC2=C(C)C)[C@@H](C)CC[C@@H]13 [PCM-0214997]	20.7	
CCCCOc1nc(N)c2c(n1)N(Cc1cccc(CN3CCCC3)c1)CC(=O)N2 [PCM-0215695]	17	
COC1CCN(C(=O)c2cc(Cc3n[nH]c(=O)c4ccccc34)ccc2F)CC1 [PCM-0095571]	10	
CC(C)(C)c1nc(-c2ccc(NC(=O)Nc3cccc(C(F)(F)F)c3)c3ccccc23)c2c(N)nccn12 [PCM-0216026]	79.3	
Cc1cc(=O)c2c(O)c3c(cc2o1)OC(C)(C)[C@@H](O[C@@H]1O[C@H](CO)[C@@H](O)[C@H](O)[C@H]1O)C3 [PCM-0216445]	-30.1	
CNCC[C@H](Oc1cccc2ccccc12)c1cccs1 [PCM-0090599]	-1.6	
O=C(O)CCCCCCCC(O)C(O)CCCCCCO (centres unmarked) [PCM-0215978]	-13.1	
COc1cc(OCc2cccc(-c3ccccc3)c2C)cc(OC)c1CN1CCCC[C@H]1C(=O)O [PCM-0215607]	-35.2	
CCCOC(C(=O)OC1CCN(C)CC1)(c1ccccc1)c1ccccc1 [PCM-0215115]	-24.1	
CC(C)NCC(O)c1ccc(NS(C)(=O)=O)cc1 (centres unmarked) [PCM-0065402]	-16.3	
CC(=O)OCC1=C(C(=O)O)N2C(=O)[C@@H](NC(=O)Cc3cccs3)[C@H]2SC1 [PCM-0214820]	-12.5	
CCOc1ccccc1O[C@H](c1ccccc1)[C@H]1CNCCO1 [PCM-0095634]	-7	
O=C1N=C(N2CCOCC2)CN1c1ccc(Cl)cc1 [PCM-0216140]	-1.5	
CC(C)c1cc(C(C)C)c(CC(=O)NS(=O)(=O)Oc2c(C(C)C)cccc2C(C)C)c(C(C)C)c1 [PCM-0095235]	56	
O=C(/C=C/c1ccc(O)cc1)c1ccc(O)cc1O [PCM-0065490]	17.1	
O=C1CC(c2c[nH]c3ccc(F)cc23)C(=O)N1 (centres unmarked) [PCM-0215900]	-5.4	
O=C1NC(=O)/C(=C/c2ccc(-c3ccc(F)cc3O)o2)S1 [PCM-0064686]	82.8	
Nc1ccc(S(=O)(=O)Nc2cnc3ccccc3n2)cc1 [PCM-0215994]	8.5	
CCCCCCCCCCCCCCCCCC[N+](C)(C)C [PCM-0216157]	-27	
Nc1ccc(S(=O)(=O)Nc2nccs2)cc1 [PCM-0085785]	14.8	
CN(C)CCNC(=O)c1cccn2c(=O)c3cc4ccccc4cc3nc12 [PCM-0215411]	5.4	
CCCN1CCO[C@@H]2c3cc(O)ccc3OC[C@H]21 [PCM-0095211]	-8.6	
